System: SYO-1 complex spheroid growth, percent test/control
Experiment: Anticancer human tumor SYO-1 cell line growth inhibition [Asc];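 note: compound exposure lasted 7 days after spheroids grew 3 days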;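 for viability, T/C: 100% = DMSO vehicle control viability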
Conditions: for IC50: curve of first compound; for viability, T/C: stronger effect = lower value; active = viability on the fitted dose curve at most 10% of control; inactive = the rest
Summary of the method: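 Concentration series start at each agent's clinical Cmax, or at 10 microM when none is established, and drop in half-log steps; agents are applied alone or together to complex spheroids built with HUVEC and hMSC.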

[1] = second compound 0.0316 µM, first compound 0.0316 µM
[2] = second compound 0.0316 µM, first compound 0.1 µM
[3] = second compound 0.0316 µM, first compound 0.316 µM
[4] = second compound 0.0316 µM, first compound 1 µM
[5] = second compound 0.1 µM, first compound 0.0316 µM
[6] = second compound 0.1 µM, first compound 0.1 µM
[7] = second compound 0.1 µM, first compound 0.316 µM
[8] = second compound 0.1 µM, first compound 1 µM
[9] = second compound 0.316 µM, first compound 0.0316 µM
[10] = second compound 0.316 µM, first compound 0.1 µM
[11] = second compound 0.316 µM, first compound 0.316 µM
[12] = second compound 0.316 µM, first compound 1 µM
[13] = second compound 1 µM, first compound 0.0316 µM
[14] = second compound 1 µM, first compound 0.1 µM
[15] = second compound 1 µM, first compound 0.316 µM
[16] = second compound 1 µM, first compound 1 µM
[17] = second compound 3.16 µM, first compound 0.0316 µM
[18] = second compound 3.16 µM, first compound 0.1 µM
[19] = second compound 3.16 µM, first compound 0.316 µM
[20] = second compound 3.16 µM, first compound 1 µM
[21] = second compound 10 µM, first compound 0.0316 µM
[22] = second compound 10 µM, first compound 0.1 µM
[23] = second compound 10 µM, first compound 0.316 µM
[24] = second compound 10 µM, first compound 1 µM

C#Cc1c(F)ccc2cc(O)cc(-c3ncc4c(N5CC6CCC(C5)N6)nc(OCC56CCCN5CC(F)C6)nc4c3F)c12 (centres undefined) + Cc1c(S(C)(=O)=O)c(-c2cc(F)cc(N3CCN(c4ccc(NS(=O)(=O)c5ccc(NC(CCN6CCC(C(=O)OCCCP(=O)(O)O)CC6)CSc6ccccc6)c(S(=O)(=O)C(F)(F)F)c5)cc4)CC3)c2)c(-c2ccc(Cl)cc2)n1C(C)C
inactive: viability, T/C [1] 93.6% | viability, T/C [2] 101% | viability, T/C [3] 89.2% | viability, T/C [4] 99.9% | viability, T/C (second compound 0.0316 µM, first compound 3.16 µM) 102% | viability, T/C (second compound 0.0316 µM, first compound 10 µM) 99.3% | viability, T/C [5] 92.4% | viability, T/C [6] 92.6% | viability, T/C [7] 90.6% | viability, T/C [8] 99.4% | viability, T/C (second compound 0.1 µM, first compound 3.16 µM) 101% | viability, T/C (second compound 0.1 µM, first compound 10 µM) 90.8% | viability, T/C [9] 93.8% | viability, T/C [10] 85.2% | viability, T/C [11] 91% | viability, T/C [12] 102% | viability, T/C (second compound 0.316 µM, first compound 3.16 µM) 99.5% | viability, T/C (second compound 0.316 µM, first compound 10 µM) 87% | viability, T/C [13] 92.7% | viability, T/C [14] 86.6% | viability, T/C [15] 88.2% | viability, T/C [16] 96.9% | viability, T/C (second compound 1 µM, first compound 3.16 µM) 96.1% | viability, T/C (second compound 1 µM, first compound 10 µM) 87% | viability, T/C [17] 83.9% | viability, T/C [18] 84.5% | viability, T/C [19] 88.8% | viability, T/C [20] 92.3% | viability, T/C (second compound 3.16 µM, first compound 3.16 µM) 85.8% | viability, T/C (second compound 3.16 µM, first compound 10 µM) 84.1% | viability, T/C [21] 78.2% | viability, T/C [22] 76.9% | viability, T/C [23] 81.1% | viability, T/C [24] 97.5% | viability, T/C (second compound 10 µM, first compound 3.16 µM) 75.8% | viability, T/C (second compound 10 µM, first compound 10 µM) 68.3%
> 10 µM: IC50 (second compound 0.0316 µM) | IC50 (second compound 0.1 µM) | IC50 (second compound 0.316 µM) | IC50 (second compound 1 µM) | IC50 (second compound 3.16 µM) | IC50 (second compound 10 µM)

CNC(C)C(=O)NC1CN(S(=O)(=O)c2cccc(S(=O)(=O)N3CCC4CCC(C(=O)NC(c5ccccc5)c5ccccc5)N4C(=O)C(NC(=O)C(C)NC)C3)c2)CCC2CCC(C(=O)NC(c3ccccc3)c3ccccc3)N2C1=O (centres undefined) + Cc1c(S(C)(=O)=O)c(-c2cc(F)cc(N3CCN(c4ccc(NS(=O)(=O)c5ccc(NC(CCN6CCC(C(=O)OCCCP(=O)(O)O)CC6)CSc6ccccc6)c(S(=O)(=O)C(F)(F)F)c5)cc4)CC3)c2)c(-c2ccc(Cl)cc2)n1C(C)C
> 1 µM: IC50 (second compound 0.0316 µM) | IC50 (second compound 0.1 µM) | IC50 (second compound 0.316 µM) | IC50 (second compound 1 µM) | IC50 (second compound 3.16 µM) | IC50 (second compound 10 µM)
inactive: viability, T/C (second compound 0.0316 µM, first compound 0.00316 µM) 94.8% | viability, T/C (second compound 0.0316 µM, first compound 0.01 µM) 97.2% | viability, T/C [1] 95.6% | viability, T/C [2] 93.3% | viability, T/C [3] 98.4% | viability, T/C [4] 103% | viability, T/C (second compound 0.1 µM, first compound 0.00316 µM) 101% | viability, T/C (second compound 0.1 µM, first compound 0.01 µM) 99.9% | viability, T/C [5] 98.4% | viability, T/C [6] 97.9% | viability, T/C [7] 95.7% | viability, T/C [8] 92.8% | viability, T/C (second compound 0.316 µM, first compound 0.00316 µM) 96.4% | viability, T/C (second compound 0.316 µM, first compound 0.01 µM) 91.8% | viability, T/C [9] 89% | viability, T/C [10] 99.3% | viability, T/C [11] 96.6% | viability, T/C [12] 85.8% | viability, T/C (second compound 1 µM, first compound 0.00316 µM) 96.6% | viability, T/C (second compound 1 µM, first compound 0.01 µM) 90.8% | viability, T/C [13] 89.8% | viability, T/C [14] 90.5% | viability, T/C [15] 88.9% | viability, T/C [16] 101% | viability, T/C (second compound 3.16 µM, first compound 0.00316 µM) 98.5% | viability, T/C (second compound 3.16 µM, first compound 0.01 µM) 88.1% | viability, T/C [17] 84.5% | viability, T/C [18] 85.5% | viability, T/C [19] 89.9% | viability, T/C [20] 82% | viability, T/C (second compound 10 µM, first compound 0.00316 µM) 94.7% | viability, T/C (second compound 10 µM, first compound 0.01 µM) 83.9% | viability, T/C [21] 74.6% | viability, T/C [22] 72.5% | viability, T/C [23] 85.7% | viability, T/C [24] 71.1%

Source: PubChem BioAssay AID1963432 (Molecular Pharmacology Branch, DTP, NCI, 2024)
